This note sets out measurements from patent publication US7541374B2, “Malononitrile compounds and use thereof” (Sumitomo Chemical Company, Limited, priority 2004, dated 2009).

Holding throughout (type): in vivo
Test [1] relates to Musca domestica. Put plainly: Test Example 3: treated filter paper with sucrose bait, Musca domestica. Conditions: 500 ppm, 0.7 ml on filter paper; ten female Musca domestica imagoes; after 24 hours; read-out: rate of dead pests. As for the experimental part: The formulation obtained according to Formulation Example 5 using the compound of the present invention (2), (3), (4), (6), (7), (8), (11), (12), (13), (15), (16), (19), (20), (21), (22), (28), (29), (30), (31), (32), (33), (34), (36), (37), (38) and (39) respectively, was diluted with water so that the active ingredient concentration came to 500 ppm to prepare a pesticidal solution for test.
On the bottom of a polyethylene cup having a diameter of 5.5 cm, a filter paper having the same diameter was laid, and 0.7 ml of the above pesticidal solution for test was added dropwise on the filter paper, followed by putting 30 mg of sucrose on it uniformly as a bait. Ten female Musca domestica imagoes were set free in the polyethylene cup and covered it with a lid. After 24 hours, the number of surviving and dead Musca domestica was examined and the rate of dead pests was calculated.

In test [2] the test system is Blattella germanica. Kind of test: Test Example 4: treated filter paper with sucrose bait, Blattella germanica. The note with it: 144 h; 500 ppm, 0.7 ml on filter paper; two male Blattella germanica imagoes; after 6 days; read-out: rate of dead pests. The method, then:
The formulation obtained according to Formulation Example 5 using the compound of the present invention (2), (3), (4), (6), (7), (8), (9), (11), (12), (13), (15), (16), (18), (19), (20), (21), (22), (27), (28), (29), (30), (31), (32), (33), (34), (35), (36), (37), (38), (43) and […] respectively, was diluted with water so that the active ingredient concentration came to 500 ppm to prepare a pesticidal solution for test.
On the bottom of a polyethylene cup having a diameter of 5.5 cm, a filter paper having the same diameter was laid, and 0.7 ml of the above pesticidal solution for test was added dropwise on the filter paper, followed by putting 30 mg of sucrose on it uniformly as a bait. Two male Blattella germanica imagoes were set free in the polyethylene cup and covered it with a lid. After 6 days, the number of surviving and dead Blattella germanica was examined and the rate of dead pests was calculated.

For test [3], the system named is Culex pipiens pallens. Kind of test: Test Example 5: larvae in treated water, Culex pipiens pallens. Conditions: 24 h; active ingredient concentration 3.5 ppm in water; twenty last-instar larvae of Culex pipiens pallens; after one day; read-out: rate of dead pests. As for the experimental part:
The formulation obtained according to Formulation Example 5 using the compound of the present invention (1), (2), (3), (4), (5), (6), (7), (8), (9), (10), (11), (12), (13), (14), (15), (16), (17), (18), (19), (20), (21), (22), (23), (25), (27), (28), (29), […], (31), (32), (33), (34), (35), (36), (37), (38), (39), (41), (44), (45), (46), (47) and (48) respectively, was diluted with water so that the active ingredient concentration came to 500 ppm to prepare a pesticidal solution for test.
0.7 ml of above pesticidal solution for test was added to 100 ml of ion exchanged water (active ingredient concentration: 3.5 ppm). Twenty last-instar larvae of Culex pipiens pallens were set free in the solution. After one day, the number of surviving and dead Culex pipiens pallens was examined and the rate of dead pests was calculated.

For the compound `CC(C)c1nn(CC(C#N)(C#N)CCC(F)(F)F)cc1Br` [compound of the present invention (11), [(4-bromo-3-i-propyl-1H-pyrazole-1-yl)methyl] (3,3,3-trifluoropropyl) malononitrile], the pest or weed control at 500 ppm in test [1] was at least 90%; in test [2], 100%. Further, the pest or weed control at 3.5 ppm in test [3] is at least 95%.
With `CC(C)(C)c1nn(CC(C#N)(C#N)CCC(F)(F)F)cc1Br` [compound of the present invention (12), [(4-bromo-3-t-butyl-1H-pyrazole-1-yl)methyl](3,3,3-trifluoropropyl) malononitrile], the pest or weed control at 500 ppm in test [1] is at least 90%; in test [2] it was 100%. The pest or weed control at 3.5 ppm in test [3] was at least 95%.
The matching figures for `CC(C)(C)c1nn(CC(C#N)(C#N)CCC(F)(F)F)cc1Cl` [compound of the present invention (13), [(4-chloro-3-t-butyl-1H-pyrazole-1-yl)methyl](3,3,3-trifluoropropyl) malononitrile]: at least 90%, 100% and at least 95%.
The like results for `N#CC(C#N)(CCC(F)(F)F)Cn1cc(Br)c(C(F)(F)F)n1` [compound of the present invention (15), [(4-bromo-3-trifluoromethyl-1H-pyrazole-1-yl)methyl](3,3,3-trifluoropropyl) malononitrile] were, in that order, at least 90%, 100% and at least 95%.
`C=CCC(C#N)(C#N)Cn1cc(Br)c(C(F)(F)F)n1` [compound of the present invention (16)]: the pest or weed control at 500 ppm is at least 90% in test [1] and 100% in test [2]. The pest or weed control at 3.5 ppm in test [3] is at least 95%.
Regarding `N#CC(C#N)(CCC(F)(F)F)Cn1cc(Cl)cn1` [compound of the present invention (19), [(4-chloro-1H-pyrazole-1-yl)methyl](3,3,3-trifluoropropyl) malononitrile], the results for the pest or weed control at 500 ppm in test [1] and in test [2] were at least 90% and 100%, respectively. The pest or weed control at 3.5 ppm in test [3] is at least 95%.
The like results for `C=CCC(C#N)(C#N)Cn1cc(Cl)cn1` [compound of the present invention (20), allyl [(4-chloro-1H-pyrazole-1-yl)methyl]malononitrile] were, in that order, at least 90%, 100% and at least 95%.
The like results for `N#CC(C#N)(CCC(F)(F)F)Cn1cc(Br)cn1` [compound of the present invention (21), [(4-bromo-1H-pyrazole-1-yl)methyl](3,3,3-trifluoropropyl) malononitrile] were, in that order, at least 90%, 100% and at least 95%.
The matching figures for `N#CC(C#N)(CCC(F)(F)F)Cn1cc(C(F)(F)F)cn1` [compound of the present invention (22), {[4-(trifluoromethyl)-1H-pyrazole-1-yl]methyl}(3,3,3-trifluoropropyl) malononitrile]: at least 90%, 100% and at least 95%.
With `CC(C)c1ncn(CC(C#N)(C#N)CCC(F)(F)F)n1` [compound of the present invention (28), [(3-i-propyl-1H-1,2,4-triazole-1-yl)methyl](3,3,3-trifluoropropyl) malononitrile], the pest or weed control at 500 ppm in test [1] was at least 90%; in test [2], 100%. Besides, in test [3], the pest or weed control at 3.5 ppm is at least 95%.
As to `CC(C)(C)c1ncn(CC(C#N)(C#N)CCC(F)(F)F)n1` [compound of the present invention (29), [(3-t-butyl-1H-1,2,4-triazole-1-yl)methyl](3,3,3-trifluoropropyl) malononitrile], the pest or weed control at 500 ppm in test [1] is at least 90%; in test [2], 100%. The pest or weed control at 3.5 ppm in test [3] is at least 95%.
The matching figures for `C=CCC(C#N)(C#N)Cn1cnc(C(C)(C)C)n1` [compound of the present invention (31), allyl [(3-t-butyl-1H-1,2,4-triazole-1-yl)methyl]malononitrile]: at least 90%, 100% and at least 95%.
The matching figures for `CC(C)(C)c1nc(Br)n(CC(C#N)(C#N)CCC(F)(F)F)n1` [compound of the present invention (32), [(5-bromo-3-t-butyl-1H-1,2,4-triazole 1-yl)methyl](3,3,3-trifluoropropyl)malononitrile]: at least 90%, 100% and at least 95%.
With `N#CC(C#N)(CCC(F)(F)F)Cn1cnc(C(F)(F)F)n1` [compound of the present invention (33), {[3-(trifluoromethyl)-1H-1,2,4-triazole-1-yl]methyl}(3,3,3-trifluoropropyl)malononitrile], the pest or weed control at 500 ppm in test [1] is at least 90%; in test [2], 100%. Also, in test [3], the pest or weed control at 3.5 ppm was at least 95%.
The like results for `N#CC(C#N)(CCC(F)(F)F)Cn1cnc(C(F)(F)C(F)(F)F)n1` [compound of the present invention (34), {[3-(pentafluoroethyl)-1H-1,2,4-triazole 1-yl]methyl}(3,3,3-trifluoropropyl) malononitrile] were, in that order, at least 90%, 100% and at least 95%.
The like results for `N#CC(C#N)(CCC(F)(F)F)Cn1ccc(C(F)(F)C(F)(F)F)n1` [compound of the present invention (36), {[3-(pentafluoroethyl)-1H-pyrazole-1-yl]methyl}(3,3,3-trifluoropropyl)malononitrile] were, in that order, at least 90%, 100% and at least 95%.
The matching figures for `N#CC(C#N)(CCC(F)(F)F)Cn1cc(Br)c(C(F)(F)C(F)(F)F)n1` [compound of the present invention (37), [(4-bromo-3-(pentafluoroethyl)-1H-pyrazole-1-yl)methyl](3,3,3-trifluoropropyl) malononitrile]: at least 90%, 100% and at least 95%.
As to `N#CC(C#N)(CCC(F)(F)F)Cn1cnc(C(F)(F)F)c1` [compound of the present invention (38), {[4-(trifluoromethyl)-1H-imidazole-1-yl]methyl}(3,3,3-trifluoropropyl) malononitrile], the pest or weed control at 500 ppm in test [1] was at least 90%; in test [2] it was 100%. Further, the pest or weed control at 3.5 ppm in test [3] was at least 95%.
